The source of these data is US7291347B2, “Succinate salt of O-desmethyl-venlafaxine” (Wyeth, priority 2001, dated 2007).

Data set [1] is described as follows: In situ rat intestinal perfusion (site-specific absorption). The following applies: for Peff Meloprolol: 20 μg/mL. The format is in vivo. The text has this: The rat intestine perfusion technique is a direct way to measure the regional absorption properties of a test compound in the gastrointestinal tract. Rat intestinal permeability coefficient (Peff) can be used to predict human in vivo oral absorption of passively absorbed compounds. Fagerholm, M. Johansson, and […], “Comparison between permeability coefficients in rat and human jejunum”, Pharm. […] Meanwhile, some other characteristics such as formulable Maximum Absorbable Dose (MAD), FDA Biopharmaceutical Classification, etc. can also be estimated. […] Rats used in this study were Charles River CD males, ranging in weight from approximately 300-350 grams. Metoprolol (a well-absorbed and passively transported compound) was used as a standard and tested simultaneously along with the ODV compounds. […] All chemicals were of analytical grade. After each experiment, all the analytic assays were performed promptly. For isotope determinations, 0.5 mL of perfusate sample containing ^14C PEG-4000 and ^3H-mannitol was mixed with 5 mL of scintillation cocktail. Radioactivity was counted in a liquid scintillation counter (Wallac 1409). Glucose concentration was determined by the glucose oxidase method (Biochemistry Analyzer). Metoprolol and the ODV compounds were analyzed by HPLC-UV/Vis (HP-1100 with a diode-array detector), using a YMC AQ 120 μ, 5 μ, 150×4.6 mm column and step gradient mobile phase containing water/0.1% TFA and acetonitrile. The ODV compounds and metoroplol were detected at 226 and 272 nm UV wavelength, respectively. Blank perfusate was assayed to evaluate the interference at these chromatographic conditions. The perfusions were performed in three intestinal sections of anesthetized rats: duodenum-jejunum, ileum, and colon. The lengths of the segments were approximately 10-12 cm for small intestine segments and 5-6 cm for colon segments. An inflow cannula was inserted at the proximal end and an outflow cannula was inserted at the distal end. Perfusate was pumped through the segment at 0.19 mL/min, and collected at 20, 40, 55, 70, 85 and 100 minutes. […] The disappearance rates of ODV compound, metoprolol, and glucose were determined from each collection interval by comparing to the initial compound solution remaining in the syringe at the end of the 100 minutes. This is to correct for any losses due to binding to the syringe or tubing. Meanwhile, drug concentration in perfusate samples were corrected for water influx/efflux, which was computed, based on ^14C-PEG-4000 concentration changes. […] Values below this range would indicate tissue damage that allows passage of PEG-4000 outside of the perfused segment, while values above this range would indicate significant water movement out of the segment. Water movement across the gut wall was determined by calculation of net water fluid: Net Water Flux (NWF)=[(1-[…] where PEGout and PEGin are the amount of radioactivity (dpm) of ^14C-PEG-4000 in inlet and outlet sides of the perfused intestinal segment, respectively; Q is the flow rate of perfusate; and L is the length of perfused segment (cm). The presence of the ODV compound in the perfusate was determined by HPLC. The amount of drug present at each time point was corrected for water movement across the wall of the intestine: Cout,[…]) where Cout is the concentration of drug in outlet perfusate; Cout,corr is the concentration of drug in outlet perfusate corrected for water moving in or out of the segment, as determined by the recovery of ^14C-PEG-4000. Effective intestinal permcability, Peff (cm/sec), was determined by the following equation: […] Cin is the concentration of drug in inlet perfusate; 2 μrL is the inner surface area of the perfused segment, with r assumed to be 0.18 cm in the rat (see G. Amidon, […]. Crison. “A theoretical basis for a biopharmaceutic drug classification: The correlation of in vitro drug product dissolution and in vivo bioavailability.” Pharm. Res. 12, 1995, 413-420) and L the length of the perfused segment (cm). […]

Data set [2] can be described thus: Physical stability of the crystalline form. The format is physicochemical.
Data set [3] in a line: Aqueous solubility (UV spectrophotometry). The format is physicochemical. The following applies: water, thermodynamic from solid; at 25° C. How it is done:
The aqueous solubility (reported above) of Form I of ODV succinate was determined according to the following procedure. Materials • Spectrophotometer—Capable of isolating a bandwidth of 2 nm or less at the wavelength of maximum absorbance, and of measuring absorbances in the 0.0 to 1.0 range with a precision of 0.01. A Cary Model 219 spectrophotometer or equivalent is suitable. • Cells—Silica, 1 cm. • Filters—0.45 micron Nylon filters which are chemical resistant or equivalent • Bottles—Glass screw top bottles having a 15 mL or greater capacity. • Shaker—A lateral shaker, wrist shaker, or a vibrator which will not generate heat is suitable. A. For Non UV Absorbing Solvents • 1. To a bottle weigh an amount of sample equivalent to approximately 1½ times the solubility. • 2. […] Agitate the bottles at ambient room temperature for at least 16 hours. • 4. Obtain a clear filtrate layer by either centrifugation of filtration being careful to avoid evaporation. • 5. Quantitatively transfer the solution to a volumetric flask and dilute to volume with water. • 6. Blank the instrument for water. • 7. Make quantitative dilutions to arrive at a suitable concentration for measurement. […] Quantitatively transfer to a volumetric flask with the same solvent used in preparing the standard solution. • 6. Make dilutions as necessary to obtain a concentration suitable for quantitative measurement. […]

The nature of data set [4]: Stability in perfusion buffer and jejunal fluids. The following applies: pH 6.8, 37° C., up to 6 hours. The format is in vitro ADME, rat. How it is done:
The stability of ODV succinate or fumarate in the solutions of blank perfusion buffer (Pβ), and jejunal fluids (perfusion buffer collected by washing the isolated jejunal segment, pH=6.8) was determined at 37° C. for up to 6 hours.

A further data set has as its system Adrenergic α. Particulars: at 1 uM; cited from earlier work.
In the next data set the test system is Serotonin reuptake. Particulars: in vitro; read-out: Inhibition of amine reuptake (IC50), Serotonin; cited from earlier work.
The next data set deals with Cholinergic. Particulars: at 1 uM; cited from earlier work.
A further data set has as its system Norepinephrine reuptake. Particulars: in vitro; read-out: Inhibition of amine reuptake (IC50), Norepinephrine; cited from earlier work.
The next data set deals with Opiate. Particulars: at 1 uM; cited from earlier work.
The next data set relates to Dopamine reuptake. Particulars: in vitro; read-out: Inhibition of amine reuptake (IC50), Dopamine; cited from earlier work.
Data set [5] concerns Reserpine-Induce Hypothermia. The following applies: i.p.; cited from earlier work.

For the compound `COCCc1ccc(OCC(O)CNC(C)C)cc1` (stereo not drawn) [Meloprolol, Metoprolol, reference compound], the “Peff Meloprolol” value in [1] (Colon, perfused together with ODV fumarate) was 11 10^−5 cm/sec; in data set [1] (Colon, perfused together with ODV succinate), 0.583 ± 0.087 10^−5 cm/sec; in data set [1] (Ileum, perfused together with ODV fumarate) it was 53 10^−5 cm/sec; in [1] (Ileum, perfused together with ODV succinate), 3.22 ± 0.07 10^−5 cm/sec; in data set [1] (Jejunum, perfused together with ODV fumarate) it was 1.78 ± 0.93 10^−5 cm/sec; in [1] (Jejunum, perfused together with ODV succinate), 2.50 ± 0.11 10^−5 cm/sec.
For `CN(C)CC(c1ccc(O)cc1)C1(O)CCCCC1.O=C(O)CCC(=O)O` (stereo not drawn) [Form I, O-des-methyl-Venlafaxine succinate monohydrate], in data set [2], the “physically stable at relative humidity” value was 5-95% and the “physically stable up to (temperature)” value was “at least 105 °C”. Further, the solubility in [3] came out at 32.2 mg/mL.
In the case of `CN(C)CC(c1ccc(O)cc1)C1(O)CCCCC1.O=C(O)/C=C/C(=O)O` (stereo not drawn) [ODV fumarate, reference compound], the “stability in blank perfusion buffer and jejunal fluids” value in data set [4] is “no apparent degradation/metabolism”. In [1] (rat, in vivo), the MAD predicted result was “about 440 mg”, the “Peff as percentage of the succinate's Peff values” amounted to 27μ40, the Peff values is on record as 0.24-0.68 ×10^−5 cm/sec and the “in vivo Fa estimated” value was 33-45%.
Regarding `CN(C)CC(c1ccc(O)cc1)C1(O)CCCCC1` (stereo not drawn) [O-desmethylvenlafaxine, 1-[2-(dimethylamino)-1-(4-phenol)ethyl]-cyclohexanol], in the data set on Adrenergic α, the “Affinity for Various Neuroreceptors (% inhibition), Adrenergic α” value is listed as 0%. Also, the 50% inhibitory concentration (IC50) with Serotonin reuptake was 180 nM; with Norepinephrine reuptake, 1160 nM; in the data set with Dopamine reuptake it was 13400 nM. In addition, the “Affinity for Various Neuroreceptors (% inhibition), Cholinergic” value with Cholinergic is reported as 7%. For the same compound, the “Affinity for Various Neuroreceptors (% inhibition), Opiate” value in the data set with Opiate is reported as 7%. Further, the “Reversal of Reserpine-Induce Hypothermia (minimum effect)” value in data set [5] is 3 mg/kg.

What is called solubility is the concentration that dissolves in the medium under given conditions. Broadly, the IC50 is the concentration that inhibits the measured activity by half.
